Experimental data: US9670374B2, “Water-based ink for inkjet printing” (KAO CORPORATION, priority 2013, dated 2017)
Read-outs that look alike come from different tables or passages of the source.

Assay: Measurement of 1-octanol/water partition coefficient (shake flask method)
Format: physicochemical
Method: The 1-octanol/water partition coefficient of the diethylene glycol isopropyl ether was measured by a shake flask method prescribed in JIS Z7260-107.
First, 10 g of ion-exchanged water and 10 g of 1-octanol were charged into a 50 mL separating funnel, and shaken at 25° C. to establish an equilibrium therebetween. Then, 1 g of diethylene glycol isopropyl ether was charged into the separating funnel, and the contents of the separating funnel were intimately shaken and subjected to centrifugal separation to separate the mixture into a 1-octanol phase and a water phase. The amounts of the diethylene glycol isopropyl ether dissolved in the respective phases were quantitatively determined by gas chromatography, thereby obtaining a partition coefficient of the diethylene glycol isopropyl ether between the two phases. The log P vale was determined as a common logarithm of the partition coefficient.
The same measurement procedure as in the above item (i) was repeated except for using a solvent to be measured in place of the diethylene glycol isopropyl ether (c1), thereby obtaining a 1-octanol/water partition coefficient of the solvent.

[1] = 1-octanol/water, shake flask method JIS Z7260-107, 25° C., log P as common logarithm, read-out: 1-octanol/water partition coefficient
[2] = shake flask method JIS Z7260-107, 25° C., log P as common logarithm
[3] = shake flask method JIS Z7260-107, 25° C., log P as common logarithm, read-out: 1-octanol/water partition coefficient

Compound | 1-octanol/water partition coefficient | logP | logP [1] | 1-octanol/water partition coefficient [2] | logP [3]
CC(O)CO (stereo not shown) [propylene glycol] | Propylene glycol (−0.95) | -0.95 | – | – | –
OCC(O)CO [glycerol] | Glycerol (≧−1.5) | -1.5 | – | – | –
CC(C)OCCOCCO [diethylene glycol isopropyl ether] | – | – | 0.04 | DEGPE (0.04)*^1 | –
CCOCCOCCO [diethylene glycol monoethyl ether, Diethylene glycol monoethyl ether] | – | – | -0.31 | DEGEE (−0.31) | –
CCCCOCCOCCO [Diethylene glycol monobutyl ether] | ether (0.7) | – | – | – | –
OCCOCCOCCO [triethylene glycol] | Triethylene glycol (−1.45) | -1.45 | – | – | –
O=C1CCCN1 [2-pyrrolidone] | – | -0.63 | – | – | –
COCCOCCO [diethylene glycol monomethyl ether, Diethylene glycol monomethyl ether] | – | – | – | DEGME (−0.85) | -0.85
OCCOCCO [diethylene glycol] | – | – | – | Diethylene glycol (−1.39) | -1.39
